Entries after “also recorded” stand apart in the source; their conditions may differ.
What was measured:
[1] = data not shown
Excerpt: (§1) The OST complex is known to be required for flavivirus infection through mechanisms that are poorly understood (Marceau et al., 2016; Savidis et al., 2016; Zhang et al., 2016). In mammalians, there are two OST complexes, each composed of a catalytic subunit isoform (STT3A or STT3B) associated with a set of shared subunits (RPN1, RPN2, DDOST, DAD1 and OST4) (Cherepanova et al., 2016). Their main function is to transfer a preassembled oligosaccharide to selected asparagine residues within the consensus sequence asparagine-X-serine/threonine (Cherepanova et al., 2016). […] To test whether the OST complex contributes to NS1 or NS4B N-glycosylation, we transfected HEK-293T cells with a siRNA pool targeting RPN1, DDOST, STT3A or STT3B. […] We then examined the effect of NGI-1, a recently discovered N-linked glycosylation inhibitor that directly and reversibly interacts with the OST catalytic subunits (Lopez-Sambrooks et al., 2016). […] To pinpoint the effect of hypoglycosylation on NS1 stability, we transfected HEK-293T cells with plasmids encoding FLAG-NS1 WT or mutants lacking the first (N130Q), the second (N207Q), or both N-linked glycosylation sites (N130Q/N207Q) (data not shown).

secreted NS1 = test: ELISA of secreted NS1 in supernatants (FIG. 2C); format: cell-based, DENV
Method: (§2) FIG. 2. […] (A) HeLa cells were pre-incubated for 24h with increased concentration of NGI-1, or for 3h with MPA prior infection with DENV2_16681 (MOI 5). MPA, Mycophenolic acid. (B) Replication kinetics of DENV2 in HeLa replicon cells challenged with NGI-1 (2 μM) or MPA (10 μM) along the experiment duration. (C) Supernatants from HEK-293T cells transfected with FLAG-NS plasmids, were subjected to ELISA to quantify secreted NS1. (D) HeLa cells were incubated for 24 hours with NGI-1 and challenged in continuous presence of the drug with DENV1 (MOI 1), DENV2_16681 (MOI 5), DENV2_JAM (MOI 5), DENV3_THAI (MOI 5), WNV (MOI 1), ZIKV (MOI 1), CHIKV (MOI 5) or HSV (MOI 0.3). (E) Similarly treated primary skin fibroblast and monocyte derived dendritic cells (MDDC) were challenged with DENV2_16681 (MOI 5) and ZIKV_HD78788 (MOI 2). (D and E) The levels of infected cells were assessed 24h post infection by flow cytometry using respective anti-viral antibodies. (A-E) Data shown are means±SD of two independent experiments. Significance was calculated using a one-way ANOVA statistical test with a Dunnett's multiple (A, B and C) or Tukey comparison test (D and E). (n.s., not significant; **p<0.001; […]).
(§3) The OST complex is known to be required for flavivirus infection through mechanisms that are poorly understood (Marceau et al., 2016; Savidis et al., 2016; Zhang et al., 2016). […]

ZIKV NS1 glycosylation = ZIKV NS1 glycosylation under NGI-1 (immunoblot, data not shown); format: cell-based; conditions: dose dependent
Excerpt: as §1

HSV = test: Infection of HeLa cells by HSV, flow cytometry (FIG. 2D); format: cell-based; conditions: MOI 0.3, 24h post infection
Method: as §2

[2] = test system: DENV1, DENV2_16681, DENV2_JAM, DENV3_THAI; test: Infection of HeLa cells by DENV serotypes, flow cytometry (FIG. 2D); format: cell-based, Dengue virus; conditions: 24 h pre-incubation, continuous drug, 24h post infection
Method: as §2

DENV2_16681 [3] = test: DENV infection of HeLa cells pre-incubated with drug (FIG. 2A); format: cell-based, Dengue virus
Method: as §2, §3

Cell proliferation = Cell proliferation over time (FIG. 3); format: cell-based; conditions: NGI-1 2 μM, measured over time, RLU
Method: FIG. 3. Cell proliferation is not affected by NGI-1. Cell proliferation is measured over time after incubation with NGI-1 (2 μM), MPA (10 μM) or respective mock control. Data shown are means±S.D. of one representative experiment of three replicates. RLU, relative light units.

DENV2_16681 [4] = test: DENV infection of monocyte-derived dendritic cells (FIG. 2E); format: cell-based, Dengue virus; conditions: DENV2_16681 MOI 5, 24h post infection
Method: as §2

DENV2_16681 [5] = test: DENV infection of human primary skin fibroblasts (FIG. 2E); format: cell-based, Dengue virus; conditions: DENV2_16681 MOI 5, 24h post infection
Method: as §2

DENV NS1 glycosylation = DENV NS1 glycosylation under NGI-1 (immunoblot, data not shown); format: cell-based; conditions: dose dependent
Excerpt: as §1

[6] = test system: DENV2 replicon (vRNA amplification); test: Replication kinetics of DENV2 in HeLa replicon cells (FIG. 2B); format: cell-based, Dengue virus; conditions: NGI-1 2 μM
Method: as §2, §3

WNV = test: Infection of HeLa cells by WNV, flow cytometry (FIG. 2D); format: cell-based, West Nile virus; conditions: MOI 1, 24h post infection
Method: as §2

DENV2_16681 [7] = conditions: Diamond et al., 2002; targets de novo purine biosynthesis pathway; cited from earlier work

SMILES	cytotoxicity [1]	NS1 secretion (secreted NS1)	ZIKV NS1 glycosylation (ZIKV NS1 glycosylation)	infection by HSV (HSV)	infection by the four DENV serotypes [2]	antiviral activity compared with MPA (DENV2_16681 [3]; FIGS. 2A and B, NGI-1 2 μM, MPA 10 μM in replicon cells)	DENV infection (DENV2_16681 [3]; HeLa cells, 24h pre-incubation with increased concentration of NGI-1, DENV2_16681 MOI 5, dose dependent)	cell proliferation / antiproliferative effects (Cell proliferation)	DENV infection of monocyte-derived dendritic cells (DENV2_16681 [4])	DENV infection of human primary skin fibroblasts (DENV2_16681 [5])	DENV NS1 glycosylation (DENV NS1 glycosylation)	vRNA amplification [6]	infection by WNV (WNV)	DENV replication inhibition (literature) (DENV2_16681 [7])
Cc1cnc(NC(=O)c2cc(S(=O)(=O)N(C)C)ccc2N2CCCC2)s1 [NGI-1]	without any significant cytotoxicity	impaired	strongly impaired	not	blocked	comparable to mycophenolic acid	significantly inhibited	not affected; also recorded: without any significant cytotoxicity (data not shown) or antiproliferative effects	significantly reduced	significantly reduced	strongly impaired	blocked	blocked	
COc1c(C)c2c(c(O)c1C/C=C(\C)CCC(=O)O)C(=O)OC2 [MPA, mycophenolic acid]														a well-known DENV replication inhibitor
